Test results published in patent US12404295B2, “(Hetero)aryl-methyl-thio-beta-D-galactopyranoside derivatives” (Idorsia Pharmaceuticals Ltd, priority 2019, dated 2025).
Like-named read-outs stand apart in the source and are kept apart here.

Target: human Gal-3 (hGal-3) (Homo sapiens (Human), UniProt P17931)
Assay: competitive binding assay: biotinylated hGal-3 binding to microplate-adsorbed asialofetuin (ASF)
Experimental: If not explicitly mentioned otherwise, the inhibition data refer to the binding of biotinylated human Gal-3 (hGal-3).
Evaluation of Compound Inhibitory Activity (IC50)
The inhibitory activity of compounds is determined in competitive binding assays.
Briefly, compounds are serially diluted in DMSO (working dilutions).
Plates are incubated for 3 hours at 4° C., then washed with cold assay buffer (3×50 uL), incubated for 1 hour with 25 μL/well of a streptavidin-peroxidase solution (diluted in assay buffer to 80 ng/mL) at 4° C., followed by further washing steps with assay buffer (3×50 uL). Finally, 25 μL/well of ABTS substrate is added.
The calculated IC50 values may fluctuate depending on the daily assay performance. Fluctuations of this kind are known to those skilled in the art. IC50 values from several measurements are given as mean values.

[1] = Gal-3 inhibition, binding of biotinylated hGal-3 to ASF, mean values, read-out: IC50
[2] = Table 11, read-out: IC50 (Gal-3 inhibition)
[3] = Table 5, read-out: IC50 (Gal-3 inhibition)
[4] = Table 14, read-out: IC50 (Gal-3 inhibition)

human Gal-3 (hGal-3), sequence (P17931 whole entry): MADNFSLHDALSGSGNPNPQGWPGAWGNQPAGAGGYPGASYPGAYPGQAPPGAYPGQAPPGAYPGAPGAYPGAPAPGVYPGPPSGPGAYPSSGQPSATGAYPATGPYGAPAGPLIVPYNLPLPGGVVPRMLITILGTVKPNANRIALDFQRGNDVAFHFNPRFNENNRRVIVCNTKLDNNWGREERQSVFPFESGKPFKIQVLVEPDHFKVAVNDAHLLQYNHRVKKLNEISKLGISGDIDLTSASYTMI

IC50 [1] [µM] | SMILES | further results
0.05 | CC(C)Cc1c([C@@H](S[C@@H]2O[C@H](CO)[C@H](O)[C@H](n3cc(-c4cc(F)c(F)c(F)c4)nn3)[C@H]2O)C2(O)CCC(F)(F)CC2)noc1C1CC1 [2.44.131 R., (2S,3R,4S,5R,6R)-2-(((R)-(5-Cyclopropyl-4-isobutylisoxazol-3-yl)(4,4-difluoro-1-hydroxycyclohexyl)methyl)thio)-6-(hydroxymethyl)-4-(4-(3,4,5-trifluorophenyl)-1H-1,2,3-triazol-1-yl)tetrahydro-2H-pyran-3,5-diol] | –
0.8 | OC[C@H](S[C@@H]1O[C@H](CO)[C@H](O)[C@H](n2cc(-c3cc(F)c(F)c(F)c3)nn2)[C@H]1O)c1ccccc1 [Example 2.30.100R., (2S,3R,4S,5R,6R)-2-(((R)-2-Hydroxy-1-phenylethyl)thio)-6-(hydroxymethyl)-4-(4-(3,4,5-trifluorophenyl)-1H-1,2,3-triazol-1-yl)tetrahydro-2H-pyran-3,5-diol] | –
0.41 | CC(C)(O)C(S[C@@H]1O[C@H](CO)[C@H](O)[C@H](n2cc(-c3cc(F)c(F)c(F)c3)nn2)[C@H]1O)c1ccccc1Cl (stereo partly drawn) [Example 2.31.111., (2S,3R,4S,5R,6R)-2-((1-(2-Chlorophenyl)-2-hydroxy-2-methylpropyl)thio)-6-(hydroxymethyl)-4-(4-(3,4,5-trifluorophenyl)-1H-1,2,3-triazol-1-yl)tetrahydro-2H-pyran-3,5-diol] | –
– | CO[C@@H]1[C@@H](n2cc(-c3cc(F)c(F)c(F)c3)nn2)[C@@H](O)[C@@H](CO)O[C@H]1S[C@H](c1ccccc1C(F)(F)F)[C@]1(O)CCOC(C)(C)C1 [Example 2.43.112RS.I, (2R,3R,4S,5R,6S)-6-(((R)-((S)-4-Hydroxy-2,2-dimethyltetrahydro-2H-pyran-4-yl)(2-(trifluoromethyl)phenyl)methyl)thio)-2-(hydroxymethyl)-5-methoxy-4-(4-(3,4,5-trifluorophenyl)-1H-1,2,3-triazol-1-yl)tetrahydro-2H-pyran-3-ol] | IC50 (Table 9, 2-OMe-Gal inhibitors, read-out: IC50 (Gal-3 inhibition)): 0.14 µM
– | CO[C@@H]1[C@@H](n2cc(-c3cc(F)c(F)c(F)c3)nn2)[C@@H](O)[C@@H](CO)O[C@H]1S[C@H](c1ncccc1C)[C@@]1(O)CCOC(C)(C)C1 [Example 2.43.126RR.I., (2R,3R,4S,5R,6S)-6-(((R)-((R)-4-Hydroxy-2,2-dimethyltetrahydro-2H-pyran-4-yl)(3-methylpyridin-2-yl)methyl)thio)-2-(hydroxymethyl)-5-methoxy-4-(4-(3,4,5-trifluorophenyl)-1H-1,2,3-triazol-1-yl)tetrahydro-2H-pyran-3-ol] | IC50 [2]: 0.73 µM
– | CO[C@@H]1[C@@H](n2cc(-c3cc(F)c(F)c(F)c3)nn2)[C@@H](O)[C@@H](CO)O[C@H]1S[C@@H](c1ncccc1C)[C@@]1(O)CCOC(C)(C)C1 [Example 2.43.126SR.I., (2R,3R,4S,5R,6S)-6-(((S)-((R)-4-Hydroxy-2,2-dimethyltetrahydro-2H-pyran-4-yl)(3-methylpyridin-2-yl)methyl)thio)-2-(hydroxymethyl)-5-methoxy-4-(4-(3,4,5-trifluorophenyl)-1H-1,2,3-triazol-1-yl)tetrahydro-2H-pyran-3-ol] | IC50 [2]: 3.5 µM
– | CO[C@@H]1[C@@H](n2cc(-c3cc(F)c(F)c(F)c3)nn2)[C@@H](O)[C@@H](CO)O[C@H]1S[C@@H](c1ncccc1C)[C@]1(O)CCOC(C)(C)C1 [Example 2.43.126SS.I., (2R,3R,4S,5R,6S)-6-(((S)-((S)-4-Hydroxy-2,2-dimethyltetrahydro-2H-pyran-4-yl)(3-methylpyridin-2-yl)methyl)thio)-2-(hydroxymethyl)-5-methoxy-4-(4-(3,4,5-trifluorophenyl)-1H-1,2,3-triazol-1-yl)tetrahydro-2H-pyran-3-ol] | IC50 [2]: 1.9 µM
– | OC[C@H]1O[C@@H](S[C@H](c2ccccc2Cl)C2(O)CCC(F)(F)CC2)[C@H](O)[C@@H](n2cc(-c3cc(F)c(F)c(F)c3)nn2)[C@H]1O [Example 2.44.111R, (2S,3R,4S,5R,6R)-2-(((R)-(2-Chlorophenyl)(4,4-difluoro-1-hydroxycyclohexyl)methyl)thio)-6-(hydroxymethyl)-4-(4-(3,4,5-trifluorophenyl)-1H-1,2,3-triazol-1-yl)tetrahydro-2H-pyran-3,5-diol] | IC50 [3]: 0.09 µM
– | OC[C@H]1O[C@@H](S[C@@H](c2ccccc2Cl)C2(O)CCC(F)(F)CC2)[C@H](O)[C@@H](n2cc(-c3cc(F)c(F)c(F)c3)nn2)[C@H]1O [Example 2.44.111S, (2S,3R,4S,5R,6R)-2-(((S)-(2-Chlorophenyl)(4,4-difluoro-1-hydroxycyclohexyl)methyl)thio)-6-(hydroxymethyl)-4-(4-(3,4,5-trifluorophenyl)-1H-1,2,3-triazol-1-yl)tetrahydro-2H-pyran-3,5-diol] | IC50 [3]: 18.4 µM
0.07 | CS(=O)(=O)N1CCC(O)(C(S[C@@H]2O[C@H](CO)[C@H](O)[C@H](n3cc(-c4cc(F)c(F)c(F)c4)nn3)[C@H]2O)c2ccccc2C(F)(F)F)CC1 (stereo partly drawn) [Example 2.47.112., (2S,3R,4S,5R,6R)-2-(((4-Hydroxy-1-(methylsulfonyl)piperidin-4-yl)(2-(trifluoromethyl)phenyl)methyl)thio)-6-(hydroxymethyl)-4-(4-(3,4,5-trifluorophenyl)-1H-1,2,3-triazol-1-yl)tetrahydro-2H-pyran-3,5-diol] | –
– | CO[C@@H]1[C@@H](n2cc(-c3cc(F)c(F)c(F)c3)nn2)[C@@H](O)[C@@H](CO)O[C@H]1SC(c1ncccc1C)C1(O)CCC2(CCOCC2)CC1 (stereo partly drawn) [Example 2.72.126.I, 9-((((2S,3R,4S,5R,6R)-5-Hydroxy-6-(hydroxymethyl)-3-methoxy-4-(4-(3,4,5-trifluorophenyl)-1H-1,2,3-triazol-1-yl)tetrahydro-2H-pyran-2-yl)thio)(3-methylpyridin-2-yl)methyl)-3-oxaspiro[5.5]undecan-9-ol] | IC50 [2]: 0.13 µM
0.22 | CS(=O)(=O)N1CC(O)(C(S[C@@H]2O[C@H](CO)[C@H](O)[C@H](n3cc(-c4cc(F)c(F)c(F)c4)nn3)[C@H]2O)c2ccccc2C(F)(F)F)C1 (stereo partly drawn) [Example 2..57.112., (2S,3R,4S,5R,6R)-2-(((3-Hydroxy-1-(methylsulfonyl)azetidin-3-yl)(2-(trifluoromethyl)phenyl)methyl)thio)-6-(Hydroxymethyl)-4-(4-(3,4,5-trifluorophenyl)-1H-1,2,3-triazol-1-yl)tetrahydro-2H-pyran-3,5-diol] | –
0.17 | CS(=O)(=O)N1CC(O)([C@H](S[C@@H]2O[C@H](CO)[C@H](O)[C@H](n3cc(-c4cc(F)c(F)c(F)c4)nn3)[C@H]2O)c2ccccc2C(F)(F)F)C1 [Example 2..57.112R., (2S,3R,4S,5R,6R)-2-(((R)-(3-Hydroxy-1-(methylsulfonyl)azetidin-3-yl)(2-(trifluoromethyl)phenyl)methyl)thio)-6-(hydroxymethyl)-4-(4-(3,4,5-trifluorophenyl)-1H-1,2,3-triazol-1-yl)tetrahydro-2H-pyran-3,5-diol] | –
5.8 | CS(=O)(=O)N1CC(O)([C@@H](S[C@@H]2O[C@H](CO)[C@H](O)[C@H](n3cc(-c4cc(F)c(F)c(F)c4)nn3)[C@H]2O)c2ccccc2C(F)(F)F)C1 [Example 2..57.112S., (2S,3R,4S,5R,6R)-2-(((S)-(3-Hydroxy-1-(methylsulfonyl)azetidin-3-yl)(2-(trifluoromethyl)phenyl)methyl)thio)-6-(hydroxymethyl)-4-(4-(3,4,5-trifluorophenyl)-1H-1,2,3-triazol-1-yl)tetrahydro-2H-pyran-3,5-diol] | –
0.4 | COC(=O)N1CC(O)(C(S[C@@H]2O[C@H](CO)[C@H](O)[C@H](n3cc(-c4cc(F)c(F)c(F)c4)nn3)[C@H]2O)c2ccccc2C(F)(F)F)C1 (stereo partly drawn) [Example 2..58.112., Methyl 3-((((2S,3R,4S,5R,6R)-3,5-dihydroxy-6-(hydroxymethyl)-4-(4-(3,4,5-trifluorophenyl)-1H-1,2,3-triazol-1-yl)tetrahydro-2H-pyran-2-yl)thio)(2-(trifluoromethyl)phenyl)methyl)-3-hydroxyazetidine-1-carboxylate] | –
0.29 | O=C(NC1CC1)N1CC(O)(C(S[C@@H]2O[C@H](CO)[C@H](O)[C@H](n3cc(-c4cc(F)c(F)c(F)c4)nn3)[C@H]2O)c2ccccc2C(F)(F)F)C1 (stereo partly drawn) [Example 2..59.11.2, N-Cyclopropyl-3-((((2S,3R,4S,5R,6R)-3,5-dihydroxy-6-(hydroxymethyl)-4-(4-(3,4,5-trifluorophenyl)-1H-1,2,3-triazol-1-yl)tetrahydro-2H-pyran-2-yl)thio)(2-(trifluoromethyl)phenyl)methyl)-3-hydroxyazetidine-1-carboxamide] | –
– | CO[C@@H]1[C@@H](n2cc(-c3ccc(F)c(F)c3F)nn2)[C@@H](O)[C@@H](CO)O[C@H]1SC(c1ncccc1C)C1(O)CCC(F)(F)CC1 (stereo partly drawn) [Example 21.44.126.I., (2R,3R,4S,5R,6S)-6-(((4,4-Difluoro-1-hydroxycyclohexyl)(3-methylpyridin-2-yl)methyl)thio)-2-(hydroxymethyl)-5-methoxy-4-(4-(2,3,4-trifluorophenyl)-1H-1,2,3-triazol-1-yl)tetrahydro-2H-pyran-3-ol] | IC50 [4]: 0.06 µM
– | CO[C@@H]1[C@@H](n2cc(-c3cnc(F)c(C)c3)nn2)[C@@H](O)[C@@H](CO)O[C@H]1SC(c1ncccc1C)C1(O)CCC(F)(F)CC1 (stereo partly drawn) [Example 24.44.126.I., (2R,3R,4S,5R,6S)-6-(((4,4-Difluoro-1-hydroxycyclohexyl)(3-methylpyridin-2-yl)methyl)thio)-4-(4-(6-fluoro-5-methylpyridin-3-yl)-1H-1,2,3-triazol-1-yl)-2-(hydroxymethyl)-5-methoxytetrahydro-2H-pyran-3-ol] | IC50 [4]: 0.33 µM
